SMILES strings stand for the structures.

Usually EC50 stands for the concentration at which the effect is half-maximal.

What all share (type): cell-based
One assay concerns MDA-MB-231. As to the kind of experiment: NCI60 screen cytotoxicity. The conditions noted are these: Homo sapiens, Breast cancer, read-out: Compound B1 EC50.
In the next assay the test system is HS-578T. As to the kind of experiment: NCI60 screen cytotoxicity. The conditions noted are these: Homo sapiens, Breast cancer, read-out: Compound B1 EC50.
Another assay concerns NCI-H522. As to the kind of experiment: NCI60 screen cytotoxicity. The conditions noted are these: Homo sapiens, Lung cancer, read-out: Compound B1 EC50.
The subject of another assay is HOP-92. As to the kind of experiment: NCI60 screen cytotoxicity. The conditions noted are these: Homo sapiens, Lung cancer, read-out: Compound B1 EC50.
The test system of a further assay is IGR-OV1. Briefly: NCI60 screen cytotoxicity. The conditions noted are these: Homo sapiens, IGROV-1, Ovarian cancer, read-out: Compound B1 EC50.
A further assay has as its system SK-MEL-5. Briefly: NCI60 screen cytotoxicity. Particulars: Homo sapiens, Melanoma, read-out: Compound B1 EC50.
Another assay relates to SNB-19. Briefly: NCI60 screen cytotoxicity. The conditions noted are these: Homo sapiens, CNS, read-out: Compound B1 EC50.
The next assay relates to 786-O. As to the kind of experiment: Cell viability panel, ATPlite 1Step. Particulars: Homo sapiens, 786-0, Renal cell carcinoma, 72 h exposure, read-out: Compound EC50. How it is done: (§1) Cell viability panel studies. Cells were diluted in the corresponding ATCC recommended medium and dispensed in a 384-well plate, depending on the cell line used, at a density of 200-6400 cells per well. For each used cell line, the optimal cell density was used. Compound was serially diluted and 8 concentration (0.04-32 μM) were added to the cells for 72 h exposure. At t=end, of ATPlite 1Step™ (PerkinElmer) were used to calculate cell viability. Cell lines marked with asterisk were seeded 24 h prior to treatment in 96-well plates at the density range of 5,000-40,000 cells/well, according to duplication rate, in RPMI 1640 medium containing 10% fetal bovine serum and 2 mM L-glutamine. Compounds were diluted from 10 mM DMSO stock and treatment was applied at the range of 0.04-1 μM. Following incubation at 37° C. for 48 hours with increasing concentrations of the compounds, viability was determined with CyQUANT® Direct Assay Kit (Invitrogen). Output intensities were normalized to values after treatment with DMSO alone, and EC50 values were calculated using the absorbance measurements [time zero, (Tz), growth control, (C), plus the test growth at the four drug concentration levels (Ti)] as follows: [(Ti−Tz)/(C−Tz)]×100 for concentrations for which Ti>/=Tz; [(Ti−Tz)/Tz]×100 for concentrations for which Ti−<Tz.
(In general: ATP-based viability assays read luminescence as a measure of living cells.)

For a further assay, the system named is A-204. Briefly: Cell viability panel, ATPlite 1Step. Particulars: Homo sapiens, A204, Embryonal rhabdomyosarcoma, 72 h exposure, read-out: Compound EC50. Here is the method: as §1
For the next assay, the system named is A-427. As to the kind of experiment: Cell viability panel, ATPlite 1Step. The conditions noted are these: Homo sapiens, Lung adenocarcinoma, 72 h exposure, read-out: Compound EC50. Here is the method: as §1
Another assay has as its system A375. Briefly: Cell viability panel, ATPlite 1Step. The conditions noted are these: Homo sapiens, A-375, Amelanotic melanoma, 72 h exposure, read-out: Compound EC50. How it is done:
as §1

The next assay deals with BT-20. As to the kind of experiment: Cell viability panel, ATPlite 1Step. The conditions noted are these: Homo sapiens, Invasive ductal carcinoma, 72 h exposure, read-out: Compound EC50. How it is done: as §1
The test system of another assay is C-33 A. Briefly: Cell viability panel, ATPlite 1Step. Particulars: Homo sapiens, Cervical squamous cell carcinoma, 72 h exposure, read-out: Compound EC50. How it is done:
as §1

The subject of another assay is CCRF-CEM. Briefly: Cell viability panel, ATPlite 1Step. Particulars: Homo sapiens, T acute lymphoblastic leukemia, 72 h exposure, read-out: Compound EC50. Here is the method:
as §1

The test system of the next assay is FaDu. As to the kind of experiment: Cell viability panel, ATPlite 1Step. Particulars: Homo sapiens, Hypopharyngeal squamous cell carcinoma, 72 h exposure, read-out: Compound EC50. Here is the method: as §1
The test system of the next assay is HL-60. As to the kind of experiment: Cell viability panel, ATPlite 1Step. Particulars: Homo sapiens, Acute myeloid leukemia, 72 h exposure, read-out: Compound EC50. Here is the method:
as §1

The subject of a further assay is Jurkat E6.1. As to the kind of experiment: Cell viability panel, ATPlite 1Step. Particulars: Homo sapiens, T acute lymphoblastic leukemia, 72 h exposure, read-out: Compound EC50. Here is the method: as §1
In the next assay the test system is MOLT-4. Briefly: Cell viability panel, ATPlite 1Step. The conditions noted are these: Homo sapiens, T acute lymphoblastic leukemia, 72 h exposure, read-out: Compound EC50. Here is the method:
as §1

Another assay relates to NCI-H661. Briefly: Cell viability panel, ATPlite 1Step. The conditions noted are these: Homo sapiens, Large cell lung carcinoma, 72 h exposure, read-out: Compound EC50. Here is the method:
as §1

For the next assay, the system named is RKO. As to the kind of experiment: Cell viability panel, ATPlite 1Step. The conditions noted are these: Homo sapiens, Colon carcinoma, 72 h exposure, read-out: Compound EC50. Here is the method:
as §1

The subject of a further assay is RL95-2. As to the kind of experiment: Cell viability panel, ATPlite 1Step. Particulars: Homo sapiens, Endometrial adenosquamous carcinoma, 72 h exposure, read-out: Compound EC50. Here is the method: as §1
The subject of a further assay is RL. As to the kind of experiment: Cell viability panel, ATPlite 1Step. Particulars: Homo sapiens, Diffuse large B-cell lymphoma, 72 h exposure, read-out: Compound EC50. How it is done: as §1
The test system of the next assay is SK-N-FI. Briefly: Cell viability panel, ATPlite 1Step. Particulars: Homo sapiens, Neuroblastoma, 72 h exposure, read-out: Compound EC50. Here is the method:
as §1

In another assay the test system is SNU-5. As to the kind of experiment: Cell viability panel, ATPlite 1Step. The conditions noted are these: Homo sapiens, Gastric carcinoma, 72 h exposure, read-out: Compound EC50. Here is the method:
as §1

The subject of another assay is SW480. As to the kind of experiment: Cell viability panel, ATPlite 1Step. The conditions noted are these: Homo sapiens, Colon adenocarcinoma, 72 h exposure, read-out: Compound EC50. Here is the method: as §1
In another assay the test system is SW620. Briefly: Cell viability panel, ATPlite 1Step. Particulars: Homo sapiens, SW-620, Colon adenocarcinoma, 72 h exposure, read-out: Compound EC50. How it is done:
as §1

In the next assay the test system is SW872. Briefly: Cell viability panel, ATPlite 1Step. The conditions noted are these: Homo sapiens, Liposarcoma, 72 h exposure, read-out: Compound EC50. How it is done: as §1
The test system of another assay is T24. As to the kind of experiment: Cell viability panel, ATPlite 1Step. The conditions noted are these: Homo sapiens, T-24, Bladder carcinoma, 72 h exposure, read-out: Compound EC50. How it is done:
as §1

Another assay concerns T98G. Briefly: Cell viability panel, ATPlite 1Step. The conditions noted are these: Homo sapiens, Glioblastoma, 72 h exposure, read-out: Compound EC50. Here is the method:
as §1

In the next assay the test system is TT. Briefly: Cell viability panel, ATPlite 1Step. The conditions noted are these: Homo sapiens, Hereditary thyroid gland medullary carcinoma, 72 h exposure, read-out: Compound EC50. Here is the method:
as §1

For the molecule `CN(C)CC(=O)NCC(=O)N1C/C(=C\c2ccc(C#N)cc2)C(=O)/C(=C/c2ccc(C#N)cc2)C1` [Compound B1], the EC50 in the assay on MDA-MB-231 was below 0.3 µM; in the assay on HS-578T, 0.3 to 1 µM; in the assay with NCI-H522 it was below 0.3 µM; with HOP-92 it was 0.3 to 1 µM; in the assay with IGR-OV1, below 0.3 µM; in the assay with SK-MEL-5 it was 0.3 to 1 µM. In addition, the EC50 in the assay on SNB-19 fell in the range of 0.3 to 1 µM.
For the molecule `CN(C)CCCS(=O)(=O)N1C/C(=C\c2ccc(C#N)cc2)C(=O)/C(=C/c2ccc(C#N)cc2)C1` [Compound AA], the EC50 in the assay with 786-O is below 0.3 µM; in the assay on A-204, below 0.3 µM; in the assay with A-427, below 0.3 µM; in the assay with A375 it was below 0.3 µM; in the assay with BT-20, at least 1 µM; in the assay with C-33 A, below 0.3 µM. The EC50 with CCRF-CEM was below 0.3 µM; with FaDu, below 0.3 µM; in the assay with HL-60 it was below 0.3 µM; with Jurkat E6.1, below 0.3 µM; in the assay with MOLT-4, below 0.3 µM; in the assay with NCI-H661, 0.3 to 1 µM. Moreover, the EC50 is below 0.3 µM in the assay on RKO; below 0.3 µM with RL95-2; below 0.3 µM with RL; below 0.3 µM in the assay with SK-N-FI; 0.3 to 1 µM with SNU-5; below 0.3 µM with SW480. Besides, the EC50 with SW620 is below 0.3 µM; in the assay on SW872, below 0.3 µM; in the assay with T24, below 0.3 µM; in the assay on T98G it was 0.3 to 1 µM; with TT, 0.3 to 1 µM.
